Experimental findings from PMC6264296, “1,3-Substituted Imidazolidine-2,4,5-triones: Synthesis and Inhibition of Cholinergic Enzymes” (Molecules, 2011) are described below.

Read-outs that look alike come from different tables or passages of the source.

For data set [1], the target named is T1, acetylcholinesterase from electric eel (Electrophorus electricus, UniProt O42275).
T1 construct: purchased Sigma
As to the kind of experiment: biochemical. How it is done: (§1) The ability of all tested compounds to inhibit acetylcholinesterase from electric eel (Electrophorus electricus L.) and butyrylcholinesterase from equine serum (both purchased from Sigma) was tested. […] The IC50 values were determined by the spectrophotometric Ellman’s method.
(§2) The Ellman’s method is a simple, rapid and direct method to determine the SH and –S–S– group content in proteins. This method is widely used for measuring of cholinesterase activity and effectivity of cholinesterase inhibitors. Cholinesterase activity is measured indirectly by quantifying the concentration of 5-thio-2-nitrobenzoic acid (TNB) ion formed in the reaction between the thiol reagent 5,5′-dithiobis-2-nitrobenzoic acid (DTNB) and thiocholine, a product of substrate (i.e., acetylthiocholine, ATCh) hydrolysis by the cholinesterase. All tested compounds were dissolved in dioxane (concentration 0.01 M) and then diluted in demineralized water (concentration 0.001 M and 0.0001 M). The procedure of determination of IC50 is in detail described in [49]. For determination of IC50 values the inhibition was determined at 12 different compound concentrations with three replicates.

Data set [2] concerns the target T2, butyrylcholinesterase from equine serum (Equus caballus, UniProt P81908).
T2 construct: butyrylcholinesterase isolated from equine serum; purchased Sigma; host or cells: equine serum
Briefly: biochemical. On the procedure:
as §1, §2

The nature of data set [3]: Partition coefficient log Kow (n-octanol/water), shake-flask method. It is filed as physicochemical. The following applies: mean ± SD (n = 3 experiments). On the procedure:
Before the partition coefficient is determined, the two solvents are mutually saturated at the temperature of the experiment. To do this, it is practical to shake two large stock bottles, one containing n-octanol and a sufficient quantity of water, and the other containing water and a sufficient quantity of n-octanol, for 24 hours on a mechanical shaker and then to let them stand long enough to allow the phases to separate.
The procedure of determination was the following: n-Octanol (2 mL) was placed in a test tube. Then an octanol solution of the chosen inhibitor (15 μL, 0.01 M) was added. Mixture was intensively shaken for 15 min. This mixture (1 mL) was placed into the cell, and its absorbance at the absorption maximum wavelength was measured. The reference solution was n-octanol. The value of absorbance corresponding to 100% of the chosen inhibitor in n-octanol was obtained. An n-octanol solution of the chosen inhibitor (0.01 M, 15 μL) was added into the mixture of n-octanol and water (1:1, total volume 4 mL). The mixture was intensively shaken for 15 min and then centrifuged (3,000 rpm, 10 min). One mL of the n-octanol layer was put into the cell, and its absorbance at the wavelength of absorption maximum was measured. The comparative solution was n-octanol again. The percentage content of chosen inhibitor in the octanol layer (%) was obtained. The n-octanol/water partition coefficient is defined as Pow = c1/c2, where c1 and c2 are molar concentrations of tested compounds in n-octanol and water. For each compound, at least three determinations were performed.

The mark [4] stands for this setting: electric eel AChE, Ellman's method, mean ± SD (n = 3 experiments), read-out: AChE IC50.
[5] abbreviates: equine serum BChE, Ellman's method, mean ± SD (n = 3 experiments), read-out: BChE IC50.

T2 sequence (P81908 whole entry): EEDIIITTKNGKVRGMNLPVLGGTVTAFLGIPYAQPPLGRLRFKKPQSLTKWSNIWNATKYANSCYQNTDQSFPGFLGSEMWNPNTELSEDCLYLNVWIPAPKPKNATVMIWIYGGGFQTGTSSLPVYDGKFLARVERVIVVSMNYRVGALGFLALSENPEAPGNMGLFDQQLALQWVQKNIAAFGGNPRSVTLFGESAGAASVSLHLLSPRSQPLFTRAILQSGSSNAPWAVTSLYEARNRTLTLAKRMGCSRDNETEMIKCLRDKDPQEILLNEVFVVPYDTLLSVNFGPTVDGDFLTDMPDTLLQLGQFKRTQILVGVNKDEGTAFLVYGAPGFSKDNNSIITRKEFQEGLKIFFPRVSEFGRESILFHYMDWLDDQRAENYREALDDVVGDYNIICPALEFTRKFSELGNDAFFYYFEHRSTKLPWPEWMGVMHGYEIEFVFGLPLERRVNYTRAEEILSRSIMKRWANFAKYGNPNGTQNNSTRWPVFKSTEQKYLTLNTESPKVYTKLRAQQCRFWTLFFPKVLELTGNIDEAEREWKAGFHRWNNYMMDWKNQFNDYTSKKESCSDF
T1 sequence (O42275 24-633): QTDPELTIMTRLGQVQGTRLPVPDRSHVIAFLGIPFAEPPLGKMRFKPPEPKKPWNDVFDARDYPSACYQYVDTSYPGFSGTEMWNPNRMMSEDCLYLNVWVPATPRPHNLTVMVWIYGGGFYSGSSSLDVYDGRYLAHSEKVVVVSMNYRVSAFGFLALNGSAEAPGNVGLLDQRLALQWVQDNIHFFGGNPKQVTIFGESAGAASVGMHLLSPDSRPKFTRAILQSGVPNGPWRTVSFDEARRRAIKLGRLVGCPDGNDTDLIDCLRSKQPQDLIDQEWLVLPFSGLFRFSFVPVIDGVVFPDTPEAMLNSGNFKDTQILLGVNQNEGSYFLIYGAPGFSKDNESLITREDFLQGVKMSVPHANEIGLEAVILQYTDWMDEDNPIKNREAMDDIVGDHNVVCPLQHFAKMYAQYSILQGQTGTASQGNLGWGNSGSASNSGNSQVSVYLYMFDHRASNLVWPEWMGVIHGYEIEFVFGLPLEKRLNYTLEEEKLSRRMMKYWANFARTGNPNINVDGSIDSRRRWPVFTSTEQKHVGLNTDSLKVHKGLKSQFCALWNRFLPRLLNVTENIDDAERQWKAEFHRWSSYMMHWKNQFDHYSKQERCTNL

Broadly, the IC50 is the concentration that gives 50% inhibition. With `C[C@H](c1nc2ccc(F)cc2s1)N1C(=O)C(=O)N(c2ccccc2)C1=O` [Compound 3a, 1-[(1R)-1-(6-Fluoro-1,3-benzothiazol-2-yl)ethyl]-3-phenylimidazolidine-2,4,5-trione], the IC50 was determined as 21.4 ± 0.19 µM in data set [1] (setting [4]) and 14.5 ± 0.21 µM in data set [2] (setting [5]).

For `C[C@H](c1nc2ccc(F)cc2s1)N1C(=O)C(=O)N(c2cccc(C(F)(F)F)c2)C1=O` [Compound 3b, 1-(3-Trifluoromethylphenyl)-3-[(1R)-1-(6-fluoro-1,3-benzothiazol-2-yl)ethyl]imidazolidine-2,4,5-trione], in data set [3], the “log Kow” value is recorded as 1.12 ± 0.15. Also, the results for the half-inhibitory concentration (IC50) in data set [1] (setting [4]) and in data set [2] (setting [5]) were 23.4 ± 0.28 µM and 17.4 ± 0.37 µM, respectively.

With `COc1ccc(N2C(=O)C(=O)N([C@H](C)c3nc4ccc(F)cc4s3)C2=O)cc1` [Compound 3c, 1-(4-Methoxyphenyl)-3-[(1R)-1-(6-fluoro-1,3-benzothiazol-2-yl)ethyl]imidazolidine-2,4,5-trione], the “log Kow” value in data set [3] is on record as 0.69 ± 0.02. Also, the half-inhibitory concentration (IC50) in data set [1] (setting [4]) is 22.4 ± 0.21 µM; in data set [2] (setting [5]) it was 13.2 ± 0.22 µM.

As for `CC(C)c1ccc(N2C(=O)C(=O)N([C@H](C)c3nc4ccc(F)cc4s3)C2=O)cc1` [Compound 3d, 1-(4-Isopropylphenyl)-3-[(1R)-1-(6-fluoro-1,3-benzothiazol-2-yl)ethyl]imidazolidine-2,4,5-trione], the half-inhibitory concentration (IC50) in data set [1] (setting [4]) turned out to be 16.6 ± 0.29 µM; in data set [2] (setting [5]), 1.66 ± 0.14 µM.

Consider `C[C@H](c1nc2ccc(F)cc2s1)N1C(=O)C(=O)N(c2ccc(Cl)cc2)C1=O` [Compound 3e, 1-(4-Chlorophenyl)-3-[(1R)-1-(6-fluoro-1,3-benzothiazol-2-yl)ethyl]imidazolidine-2,4,5-trione], for which the values for the IC50 in data set [1] and in data set [2] were 13.8 ± 0.13 µM and 25.7 ± 0.29 µM, respectively.

`C[C@H](c1nc2ccc(F)cc2s1)N1C(=O)C(=O)N(c2ccc(C#N)cc2)C1=O` [Compound 3f, 1-(4-Cyanophenyl)-3-[(1R)-1-(6-fluoro-1,3-benzothiazol-2-yl)ethyl]imidazolidine-2,4,5-trione]: the “log Kow” value is on record as 0.41 ± 0.02 in data set [3] and “lowest lipophilicity” in data set [3] (listed as 4f). The half-inhibitory concentration (IC50) in data set [1] (setting [4]) turned out to be 19.1 ± 0.27 µM; in data set [2] (setting [5]) it was 10.5 ± 0.18 µM.

Turning to `CC(C)c1cccc(C(C)C)c1N1C(=O)C(=O)N([C@H](C)c2nc3ccc(F)cc3s2)C1=O` [Compound 3g, 1-(2,6-Diisopropylphenyl)-3-[(1R)-1-(6-fluoro-1,3-benzothiazol-2-yl)ethyl]imidazolidine-2,4,5-trione], in data set [3], the “log Kow” value was 0.98 ± 0.08. For the same compound, the 50% inhibitory concentration (IC50) in data set [1] (setting [4]) was 15.1 ± 0.29 µM; in data set [2] (setting [5]), 30.2 ± 0.45 µM.

`Cc1ccc(N2C(=O)C(=O)N([C@H](C)c3nc4ccc(F)cc4s3)C2=O)cc1Cl` [Compound 3h, 1-(3-Chloro-4-methylphenyl)-3-[(1R)-1-(6-fluoro-1,3-benzothiazol-2-yl)ethyl]imidazolidine-2,4,5-trione]: the “log Kow” value in data set [3] came to 0.50 ± 0.02. For the same compound, the IC50 amounted to 15.5 ± 0.2 µM in data set [1] and 17 ± 0.1 µM in data set [2].

Take `C[C@H](c1nc2ccc(F)cc2s1)N1C(=O)C(=O)N(c2cc(Cl)cc(Cl)c2)C1=O` [Compound 3j, 1-(3,5-Dichlorophenyl)-3-[(1R)-1-(6-fluoro-1,3-benzothiazol-2-yl)ethyl]imidazolidine-2,4,5-trione]: the “log Kow” value in data set [3] was 0.77 ± 0.03. For the same compound, the IC50 is 17 ± 0.38 µM in data set [1] and 29.5 ± 0.39 µM in data set [2].

As for `C[C@H](c1nc2ccc(F)cc2s1)N1C(=O)C(=O)N(Cc2ccccc2)C1=O` [Compound 3k, 1-Benzyl-3-[(1R)-1-(6-fluoro-1,3-benzothiazol-2-yl)ethyl]imidazolidine-2,4,5-trione], the “log Kow” value in data set [3] is 1.06 ± 0.09. In addition, the concentration for half-maximal inhibition (IC50) in data set [1] (setting [4]) worked out at 18.6 ± 0.16 µM; in data set [2] (setting [5]) it was 12.6 ± 0.11 µM.
